From PubChem BioAssay AID1259407 (Chemical Carcinogenesis Research Information System (CCRIS), 2018)
Activity calls are given as the source filed them. How the calls were made is not given here.

System: CCRIS mutagenicity, Ames/micronucleus/aberration tests
Test: CCRIS mutagenicity studies
[1] = Test System: AMES SALMONELLA TYPHIMURIUM, Strain/Indicator: TA98, Metabolic Activation: NONE, Method: STANDARD PLATE
[2] = Test System: AMES SALMONELLA TYPHIMURIUM, Strain/Indicator: TA98, Metabolic Activation: RAT, LIVER, S-9, AROCLOR 1254, Method: STANDARD PLATE
[3] = Test System: AMES SALMONELLA TYPHIMURIUM, Strain/Indicator: TA100, Metabolic Activation: NONE, Method: STANDARD PLATE
[4] = Test System: AMES SALMONELLA TYPHIMURIUM, Strain/Indicator: TA100, Metabolic Activation: RAT, LIVER, S-9, AROCLOR 1254, Method: STANDARD PLATE
[5] = Test System: AMES SALMONELLA TYPHIMURIUM, Strain/Indicator: TA1538, Metabolic Activation: NONE, Method: STANDARD PLATE
[6] = Test System: AMES SALMONELLA TYPHIMURIUM, Strain/Indicator: TA1538, Metabolic Activation: RAT, LIVER, S-9, AROCLOR 1254, Method: STANDARD PLATE
[7] = Test System: AMES SALMONELLA TYPHIMURIUM, Strain/Indicator: TA98, Metabolic Activation: NONE, Method: PREINCUBATION
[8] = Test System: AMES SALMONELLA TYPHIMURIUM, Strain/Indicator: TA100, Metabolic Activation: NONE, Method: PREINCUBATION
[9] = Test System: AMES SALMONELLA TYPHIMURIUM, Strain/Indicator: TA1535, Metabolic Activation: NONE, Method: PREINCUBATION
[10] = Test System: AMES SALMONELLA TYPHIMURIUM, Strain/Indicator: TA1537, Metabolic Activation: NONE, Method: PREINCUBATION

CCCCOc1cc(N=Nc2ccc(NCCO)cc2NCCO)ccc1N=Nc1c(S(=O)(=O)O)cc2ccc(N)cc2c1O
mutagenic call [1]: inactive; negative | mutagenic call [2]: active; positive | mutagenic call [3]: inactive; negative | mutagenic call [4]: inactive; negative | mutagenic call [5]: inactive; negative | mutagenic call [6]: active; positive

C/C=C1/C[C@@H](C)[C@@](C)(O)C(=O)OC/C2=C/CN(C)CC[C@@H](OC1=O)C2=O
mutagenic call (Test System: AMES SALMONELLA TYPHIMURIUM, Strain/Indicator: TA100, Metabolic Activation: HAMSTER, LIVER, S-9, PCB, Method: PREINCUBATION): active; positive | mutagenic call (Test System: AMES SALMONELLA TYPHIMURIUM, Strain/Indicator: TA100, Metabolic Activation: RAT, LIVER, S-9, PCB, Method: PREINCUBATION): active; positive | mutagenic call (Test System: UDS HAMSTER HEPATOCYTES, Strain/Indicator: THY INCORP, Metabolic Activation: NONE, Method: AUTORADIOGRAPHY): active; positive | mutagenic call (Test System: UDS MOUSE HEPATOCYTES, Strain/Indicator: THY INCORP, Metabolic Activation: NONE, Method: AUTORADIOGRAPHY): active; positive | mutagenic call (Test System: UDS RAT HEPATOCYTES, Strain/Indicator: THY INCORP, Metabolic Activation: NONE, Method: AUTORADIOGRAPHY): active; positive

CON(C)C(=O)Nc1ccc(Br)cc1
mutagenic call [1]: inactive; negative | mutagenic call [2]: inactive; negative | mutagenic call [3]: inactive; negative | mutagenic call [4]: inactive; negative

Nc1ccccc1C(=O)O
mutagenic call (Test System: AMES SALMONELLA TYPHIMURIUM, Strain/Indicator: TA98, Metabolic Activation: HAMSTER, LIVER, S-9, AROCLOR 1254 (10%), Method: PREINCUBATION): inactive; negative | mutagenic call [7]: inactive; negative | mutagenic call (Test System: AMES SALMONELLA TYPHIMURIUM, Strain/Indicator: TA98, Metabolic Activation: RAT, LIVER, S-9, AROCLOR 1254 (10%), Method: PREINCUBATION): inactive; negative | mutagenic call (Test System: AMES SALMONELLA TYPHIMURIUM, Strain/Indicator: TA100, Metabolic Activation: HAMSTER, LIVER, S-9, AROCLOR 1254 (10%), Method: PREINCUBATION): inactive; negative | mutagenic call [8]: inactive; negative | mutagenic call (Test System: AMES SALMONELLA TYPHIMURIUM, Strain/Indicator: TA100, Metabolic Activation: RAT, LIVER, S-9, AROCLOR 1254 (10%), Method: PREINCUBATION): inactive; negative | mutagenic call (Test System: AMES SALMONELLA TYPHIMURIUM, Strain/Indicator: TA1535, Metabolic Activation: HAMSTER, LIVER, S-9, AROCLOR 1254 (10%), Method: PREINCUBATION): inactive; negative | mutagenic call [9]: inactive; negative | mutagenic call (Test System: AMES SALMONELLA TYPHIMURIUM, Strain/Indicator: TA1535, Metabolic Activation: RAT, LIVER, S-9, AROCLOR 1254 (10%), Method: PREINCUBATION): inactive; negative | mutagenic call (Test System: AMES SALMONELLA TYPHIMURIUM, Strain/Indicator: TA1537, Metabolic Activation: HAMSTER, LIVER, S-9, AROCLOR 1254 (10%), Method: PREINCUBATION): inactive; negative | mutagenic call [10]: inactive; negative | mutagenic call (Test System: AMES SALMONELLA TYPHIMURIUM, Strain/Indicator: TA1537, Metabolic Activation: RAT, LIVER, S-9, AROCLOR 1254 (10%), Method: PREINCUBATION): inactive; negative | mutagenic call (Test System: CHINESE HAMSTER OVARY, Strain/Indicator: CHO-K1-BH4 (HGPRT)/6-THIOGUANINE, Metabolic Activation: NONE): inactive; negative | mutagenic call (Test System: CHINESE HAMSTER OVARY, Strain/Indicator: CHO-K1-BH4 (HGPRT)/6-THIOGUANINE, Metabolic Activation: S-9): inactive; negative | mutagenic call (Test System: MOUSE LYMPHOMA, Strain/Indicator: L5178Y (TK+/TK-), Metabolic Activation: RAT, LIVER, S-9, AROCLOR 1254, Method: SUSPENSION/PLATE): active; positive | mutagenic call (Test System: Mouse lymphoma, Strain/Indicator: L5178Y (tk+/tk-), Metabolic Activation: None, Method: Suspension/plate): inactive; negative | mutagenic call (Test System: Mouse lymphoma, Strain/Indicator: L5178Y (tk+/tk-), Metabolic Activation: Rat, Liver, S-9, Aroclor 1254, Method: Suspension/plate): active; positive

CC(C)(C)OOC1(C)C=C(C(C)(C)C)C(=O)C(C(C)(C)C)=C1
mutagenic call [7]: inactive; negative | mutagenic call (Test System: AMES SALMONELLA TYPHIMURIUM, Strain/Indicator: TA98, Metabolic Activation: RAT, LIVER, S-9, Method: PREINCUBATION): inactive; negative | mutagenic call [8]: inactive; negative | mutagenic call (Test System: AMES SALMONELLA TYPHIMURIUM, Strain/Indicator: TA100, Metabolic Activation: RAT, LIVER, S-9, Method: PREINCUBATION): inactive; negative

C[C@]12CC[C@@H]3c4ccc(O)cc4CC[C@H]3[C@@]13CC[C@]2(O)[C@H](O)C3
mutagenic call (End Point: IN VITRO CHROMOSOMAL ABERRATIONS, Test System: HUMAN PERIPHERAL LYMPHOCYTES, Metabolic Activation: NONE): inactive; negative | mutagenic call (End Point: IN VITRO CHROMOSOMAL ABERRATIONS, Test System: HUMAN PERIPHERAL LYMPHOCYTES, Metabolic Activation: RAT, LIVER, S-9, AROCLOR 1254): inactive; negative | mutagenic call [7]: inactive; negative | mutagenic call [1]: inactive; negative | mutagenic call (Test System: AMES SALMONELLA TYPHIMURIUM, Strain/Indicator: TA98, Metabolic Activation: RAT, LIVER, S-9, AROCLOR 1254, Method: PREINCUBATION): inactive; negative | mutagenic call [2]: inactive; negative | mutagenic call [8]: inactive; negative | mutagenic call [3]: inactive; negative | mutagenic call (Test System: AMES SALMONELLA TYPHIMURIUM, Strain/Indicator: TA100, Metabolic Activation: RAT, LIVER, S-9, AROCLOR 1254, Method: PREINCUBATION): inactive; negative | mutagenic call [4]: inactive; negative | mutagenic call [9]: inactive; negative | mutagenic call (Test System: AMES SALMONELLA TYPHIMURIUM, Strain/Indicator: TA1535, Metabolic Activation: NONE, Method: STANDARD PLATE): inactive; negative | mutagenic call (Test System: AMES SALMONELLA TYPHIMURIUM, Strain/Indicator: TA1535, Metabolic Activation: RAT, LIVER, S-9, AROCLOR 1254, Method: PREINCUBATION): inactive; negative | mutagenic call (Test System: AMES SALMONELLA TYPHIMURIUM, Strain/Indicator: TA1535, Metabolic Activation: RAT, LIVER, S-9, AROCLOR 1254, Method: STANDARD PLATE): inactive; negative | mutagenic call [10]: inactive; negative | mutagenic call (Test System: AMES SALMONELLA TYPHIMURIUM, Strain/Indicator: TA1537, Metabolic Activation: NONE, Method: STANDARD PLATE): inactive; negative | mutagenic call (Test System: AMES SALMONELLA TYPHIMURIUM, Strain/Indicator: TA1537, Metabolic Activation: RAT, LIVER, S-9, AROCLOR 1254, Method: PREINCUBATION): inactive; negative | mutagenic call (Test System: AMES SALMONELLA TYPHIMURIUM, Strain/Indicator: TA1537, Metabolic Activation: RAT, LIVER, S-9, AROCLOR 1254, Method: STANDARD PLATE): inactive; negative | mutagenic call (Test System: AMES SALMONELLA TYPHIMURIUM, Strain/Indicator: TA1538, Metabolic Activation: NONE, Method: PREINCUBATION): inactive; negative | mutagenic call [5]: inactive; negative | mutagenic call (Test System: AMES SALMONELLA TYPHIMURIUM, Strain/Indicator: TA1538, Metabolic Activation: RAT, LIVER, S-9, AROCLOR 1254, Method: PREINCUBATION): inactive; negative | mutagenic call [6]: inactive; negative | mutagenic call (Test System: CHINESE HAMSTER V-79, Strain/Indicator: V-79 (HGPRT)/6-THIOGUANINE, Metabolic Activation: NONE): inactive; negative | mutagenic call (Test System: CHINESE HAMSTER V-79, Strain/Indicator: V-79 (HGPRT)/6-THIOGUANINE, Metabolic Activation: RAT, LIVER, S-9, AROCLOR 1254): inactive; negative

C[C@@]12CCc3occc3[C@H]1CC[C@@]13C[C@@H](CC[C@H]12)[C@@](O)(CO)C3
mutagenic call (Test System: AMES SALMONELLA TYPHIMURIUM, Strain/Indicator: TM677, Metabolic Activation: NONE, Method: PREINCUBATION): inactive; negative | mutagenic call (Test System: AMES SALMONELLA TYPHIMURIUM, Strain/Indicator: TM677, Metabolic Activation: RAT, LIVER, S-9, AROCLOR 1254, Method: PREINCUBATION): inactive; negative
